In patent US8889874B2, “Imidazolone-chalcone derivatives as potential anticancer agent and process for the preparation thereof” (Council of Scientific and Industrial Research, priority 2010, dated 2014):
Read-outs that look alike come from different tables or passages of the source.

What was measured:
Type in all cases: cell-based, human
[1] = system: Breast cancer cell lines; assay: NCI anticancer screen, SRB assay, panel summary; conditions: Homo sapiens
Description: (§1) Some of biological activity studies were carried out at the National Cancer Institute (NCI), Maryland, USA.
(§2) The compounds were evaluated for anticancer activity against fifty three human cancer cells derived from nine cancer types (leukemia cell line, non-small-cell lung cell line, colon cell line, CNS cell line, melanoma cell line, ovarian cell line, prostate cell line, and breast cancer cell line) as shown in Table 1. For each compound, dose response curves for each cell line were measured at a minimum of five concentrations at 10 fold dilutions. A protocol of 48 h continuous drug exposure was used and a sulforhodamine B (SRB) protein assay was used to estimate cell viability or growth.

[2] = system: Non-small cell lung cancer cell lines; assay: NCI anticancer screen, SRB assay, panel summary; conditions: Homo sapiens
Description: as §1, §2

[3] = system: Colon cancer cell lines; assay: NCI anticancer screen, SRB assay, panel summary; conditions: for GI50: Homo sapiens
Description: as §1, §2

[4] = system: Melanoma cancer cell lines; assay: NCI anticancer screen, SRB assay, panel summary; conditions: for GI50: Homo sapiens
Description: as §1, §2

[5] = system: CNS cancer cell lines; assay: NCI anticancer screen, SRB assay, panel summary; conditions: for GI50: Homo sapiens
Description: as §1, §2

[6] = system: Renal cancer cell lines; assay: NCI anticancer screen, SRB assay, panel summary; conditions: Homo sapiens
Description: as §1, §2

[7] = system: Leukemia cancer cell lines; assay: NCI anticancer screen, SRB assay, panel summary; conditions: Homo sapiens
Description: as §1, §2

[8] = system: Ovarian cancer cell lines; assay: NCI anticancer screen, SRB assay, panel summary; conditions: Homo sapiens
Description: as §1, §2

[9] = system: SF-539 (CNS); assay: NCI anticancer screen, SRB assay, 48 h; conditions: Homo sapiens
Description: as §1, §2

[10] = system: TD-47D (breast); assay: NCI anticancer screen, SRB assay, 48 h; conditions: Homo sapiens
Description: as §1, §2

[11] = system: COLO 205 (colon); assay: NCI anticancer screen, SRB assay, 48 h; conditions: Homo sapiens, COLO 205
Description: as §1, §2

[12] = system: NCI-H460 (non-small cell lung); assay: NCI anticancer screen, SRB assay, 48 h; conditions: Homo sapiens
Description: as §1, §2

[13] = system: MDA-MB-231/ATCC (breast); assay: NCI anticancer screen, SRB assay, 48 h; conditions: Homo sapiens
Description: as §1, §2

[14] = system: KM12 (colon); assay: NCI anticancer screen, SRB assay, 48 h; conditions: Homo sapiens
Description: as §1, §2

[15] = system: A498 (renal); assay: NCI anticancer screen, SRB assay, 48 h; conditions: Homo sapiens
Description: as §1, §2

[16] = system: NCI-H23 (non-small cell lung); assay: NCI anticancer screen, SRB assay, 48 h; conditions: Homo sapiens
Description: as §1, §2

[17] = system: A549/ATCC (non-small cell lung); assay: NCI anticancer screen, SRB assay, 48 h; conditions: Homo sapiens
Description: as §1, §2

[18] = system: SK-MEL-28 (melanoma); assay: NCI anticancer screen, SRB assay, 48 h; conditions: Homo sapiens
Description: as §1, §2

[19] = system: SNB-75 (CNS); assay: NCI anticancer screen, SRB assay, 48 h; conditions: Homo sapiens
Description: as §1, §2

[20] = system: BT-549 (breast); assay: NCI anticancer screen, SRB assay, 48 h; conditions: Homo sapiens
Description: as §1, §2

[21] = system: ACHN (renal); assay: NCI anticancer screen, SRB assay, 48 h; conditions: Homo sapiens
Description: as §1, §2

[22] = system: M14 (melanoma); assay: NCI anticancer screen, SRB assay, 48 h; conditions: Homo sapiens
Description: as §1, §2

[23] = system: HCC-2998 (colon); assay: NCI anticancer screen, SRB assay, 48 h; conditions: Homo sapiens
Description: as §1, §2

[24] = system: HT29 (colon); assay: NCI anticancer screen, SRB assay, 48 h; conditions: Homo sapiens
Description: as §1, §2

[25] = system: SF-295 (CNS); assay: NCI anticancer screen, SRB assay, 48 h; conditions: Homo sapiens
Description: as §1, §2

[26] = system: HOP-92 (non-small cell lung); assay: NCI anticancer screen, SRB assay, 48 h; conditions: Homo sapiens
Description: as §1, §2

[27] = system: LOX IMVI (melanoma); assay: NCI anticancer screen, SRB assay, 48 h; conditions: Homo sapiens
Description: as §1, §2

[28] = system: SK-MEL-2 (melanoma); assay: NCI anticancer screen, SRB assay, 48 h; conditions: Homo sapiens
Description: as §1, §2

[29] = system: OVCAR-3 (ovarian); assay: NCI anticancer screen, SRB assay, 48 h; conditions: Homo sapiens
Description: as §1, §2

[30] = system: SN12C (renal); assay: NCI anticancer screen, SRB assay, 48 h; conditions: Homo sapiens, SN12C
Description: as §1, §2

[31] = system: HS 578T (breast); assay: NCI anticancer screen, SRB assay, 48 h; conditions: Homo sapiens
Description: as §1, §2

[32] = 48 h exposure, SRB, read-out: GI50
[33] = read-out: pGI50 (-log of molar concentration causing 50% inhibition of net cell growth) (converted)

SMILES: O=C(/C=C/c1cccc(O)c1)c1cccc(-n2cc(-c3ccc(Cl)cc3)[nH]c2=O)c1 [4f, 4-(4-chlorophenyl)-1-3-[(E)-3-(3-hydroxyphenyl)-2-propenoyl]phenyl-2,3-dihydro-1H-2-imidazolone]
- GI50 ([1]; Breast panel, log of concentration in mol/L causing 50% inhibition of net cell growth, read-out: mean graph midpoint (MG_MID) of Log10 GI50 (converted)): 2190 nM
- LC50 ([1]; Breast panel, log of concentration leading to 50% net cell death, read-out: mean graph midpoint (MG_MID) of Log10 LC50 (converted)): 63100 nM
- GI50 ([1]; five breast cancer cell lines, exposure at least 48 hrs, read-out: GI50, range over the panel): 1290 to 4000 nM
- GI50 ([2]; Non-small cell lung panel, log of concentration in mol/L causing 50% inhibition of net cell growth, read-out: mean graph midpoint (MG_MID) of Log10 GI50 (converted)): 2340 nM
- LC50 ([2]; Non-small cell lung panel, log of concentration leading to 50% net cell death, read-out: mean graph midpoint (MG_MID) of Log10 LC50 (converted)): 57500 nM
- GI50 ([2]; nine non-small cell lung cancer cell lines, exposure at least 48 hrs, read-out: GI50, range over the panel): 1600 to 3550 nM
- mean graph midpoint (MG_MID) of Log10 LC50 ([3]; Colon panel, log of concentration leading to 50% net cell death): 4.68
- GI50 ([3]; Colon panel, log of concentration in mol/L causing 50% inhibition of net cell growth, read-out: mean graph midpoint (MG_MID) of Log10 GI50 (converted)): 2340 nM
- GI50 ([3]; seven colon cancer cell lines, exposure at least 48 hrs, read-out: GI50, range over the panel): 1230 to 13700 nM
- GI50 ([4]; Melanoma panel, log of concentration in mol/L causing 50% inhibition of net cell growth, read-out: mean graph midpoint (MG_MID) of Log10 GI50 (converted)): 2190 nM
- GI50 ([4]; nine melanoma cancer cell lines, exposure at least 48 hrs, read-out: GI50, range over the panel): 1530 to 4070 nM
- mean graph midpoint (MG_MID) of Log10 LC50 ([4]; Melanoma panel, log of concentration leading to 50% net cell death): 4.55
- mean graph midpoint (MG_MID) of Log10 LC50 ([5]; CNS panel, log of concentration leading to 50% net cell death): 4.87
- GI50 ([5]; CNS panel, log of concentration in mol/L causing 50% inhibition of net cell growth, read-out: mean graph midpoint (MG_MID) of Log10 GI50 (converted)): 1450 nM
- GI50 ([5]; six CNS cancer cell lines, exposure at least 48 hrs, read-out: GI50, range over the panel): 580 to 1920 nM
- GI50 ([6]; Renal panel, log of concentration in mol/L causing 50% inhibition of net cell growth, read-out: mean graph midpoint (MG_MID) of Log10 GI50 (converted)): 1780 nM
- LC50 ([6]; Renal panel, log of concentration leading to 50% net cell death, read-out: mean graph midpoint (MG_MID) of Log10 LC50 (converted)): 27500 nM
- GI50 ([6]; eight renal cancer cell lines, exposure at least 48 hrs, read-out: GI50, range over the panel): 550 to 3710 nM
- GI50 ([7]; Leukemia panel, log of concentration in mol/L causing 50% inhibition of net cell growth, read-out: mean graph midpoint (MG_MID) of Log10 GI50 (converted)): 794 nM
- LC50 ([7]; Leukemia panel, log of concentration leading to 50% net cell death, read-out: mean graph midpoint (MG_MID) of Log10 LC50 (converted)): 87100 nM
- GI50 ([7]; two leukemia cancer cell lines (RPMI-8226 and K-562), exposure at least 48 hrs, read-out: GI50, range over the panel): 400 to 1550 nM
- GI50 ([8]; Ovarian panel, log of concentration in mol/L causing 50% inhibition of net cell growth, read-out: mean graph midpoint (MG_MID) of Log10 GI50 (converted)): 2040 nM
- LC50 ([8]; Ovarian panel, log of concentration leading to 50% net cell death, read-out: mean graph midpoint (MG_MID) of Log10 LC50 (converted)): 46800 nM
- GI50 ([8]; six ovarian cancer cell lines, exposure at least 48 hrs, read-out: GI50, range over the panel): 990 to 4210 nM
- GI50 [9, 32]: 1680 nM
- GI50 [9, 33]: 1700 nM
- GI50 [10, 32]: 1920 nM
- GI50 [10, 33]: 1910 nM
- GI50 ([11]; COLO205, read-out: pGI50 (-log of molar concentration causing 50% inhibition of net cell growth) (converted)): 2290 nM
- GI50 [11, 32]: 2290 nM
- GI50 [12, 32]: 2410 nM
- GI50 [12, 33]: 2400 nM
- GI50 [13, 32]: 3350 nM
- GI50 [13, 33]: 3390 nM
- GI50 [14, 32]: 1340 nM
- GI50 [14, 33]: 1350 nM
- GI50 [15, 32]: 3710 nM
- GI50 [15, 33]: 3720 nM
- GI50 [16, 32]: 2780 nM
- GI50 [16, 33]: 2750 nM
- GI50 [17, 32]: 3550 nM
- GI50 [17, 33]: 3550 nM
- GI50 [18, 32]: 3640 nM
- GI50 [18, 33]: 3630 nM
- GI50 [19, 32]: 1460 nM
- GI50 [19, 33]: 1450 nM
- GI50 [20, 32]: 1450 nM
- GI50 [20, 33]: 1450 nM
- GI50 [21, 32]: 1840 nM
- GI50 [21, 33]: 1820 nM
- GI50 [22, 32]: 2010 nM
- GI50 [22, 33]: 2000 nM
- GI50 [23, 32]: 13700 nM
- GI50 [23, 33]: 13800 nM
- GI50 ([24]; HT-29, 48 h exposure, SRB, read-out: GI50): 1900 nM
- GI50 ([24]; HT-29, read-out: pGI50 (-log of molar concentration causing 50% inhibition of net cell growth) (converted)): 1910 nM
- GI50 [25, 32]: 1790 nM
- GI50 [25, 33]: 1780 nM
- GI50 [26, 32]: 1600 nM
- GI50 [26, 33]: 1580 nM
- GI50 [27, 32]: 1570 nM
- GI50 [27, 33]: 1580 nM
- GI50 [28, 32]: 2070 nM
- GI50 [28, 33]: 2090 nM
- GI50 [29, 32]: 1560 nM
- GI50 [29, 33]: 1550 nM
- GI50 ([30]; SN 12C, read-out: pGI50 (-log of molar concentration causing 50% inhibition of net cell growth) (converted)): 1950 nM
- GI50 [30, 32]: 1950 nM
- GI50 [31, 32]: 4000 nM
- GI50 [31, 33]: 3980 nM
